Test results reported in PMC6151437, “Antibacterial Synthetic Peptides Derived from Bovine Lactoferricin Exhibit Cytotoxic Effect against MDA-MB-468 and MDA-MB-231 Breast Cancer Cell Lines” (Molecules : A Journal of Synthetic Chemistry and Natural …, 2017).
≈ marks a conversion by molar mass, not a printed value. Read-outs that look alike come from different tables or passages of the source. Bridge positions count the residues as written; N and C are the ends. Square brackets hold non-standard residues; d marks the D form. Ends that are not written are not given here. Peptide text beside a SMILES is read from it. I, II: the chains in the order shown. Ahx = NCCCCCC(=O)O

Experiments:
[1] = system: E. coli; set-up: method as in ref 15, 25, 26 = [15]; PMID 25815317; doi:10.1155/2015/453826; 15. León M.A. Leal A.L. Almanzar G. Rosas J.E. García J.E. Rivera Z.J. Antibacterial activity of synthetic peptides derived from Lactoferricin against Escherichia coli ATCC 25922 and Enterococcus faec || [25]; PMID 28613262; doi:10.3390/molecules22060987; 25. Huertas N.J. Monroy Z.J.R. Medina R.F. Castañeda J.E.G. Antimicrobial Activity of Truncated and Polyvalent Peptides Derived from the […] Sequence against Escherichia coli ATCC 25922 an || [26]; PMID 28287494; doi:10.3390/molecules22030452; 26. Huertas Méndez N.J. Vargas Casanova Y. Gómez Chimbi A.K. Hernández E. Leal Castro A.L. Melo Diaz J.M. Rivera Monroy Z.J. García Castañeda J.E. Synthetic Peptides Derived from Bovine Lactoferricin; settings: first of three values given 'respectively', strain not distinguished; cited from earlier work
[2] = system: E. coli ATCC 11775; type: cell-based
Protocol: (§1) The minimal inhibitory concentration (MIC) was determined using a microdilution assay. In brief, bacterial strains were incubated for 18 to 24 h at 37 °C in an Muller Hinton broth (MHB) until an optical density of 0.15 to 0.30 (620 nm) was obtained. 90 µL of MHB was mixed with 90 µL of peptide (440 µg/mL), and using a 96-well microtiter plate peptide, serial dilution (200, 100, 50, 25, 12.5, and 6.2 µg/mL) was performed. 10 µL of inoculum (2 × 10^6 CFU/mL) was added to each well. Final volume in each well was 100 µL. Then they were incubated for 24 h at 37 °C, and the absorbance at 620 nm was measured using an Asys Expert Plus ELISA reader. For determining the minimum bactericidal concentration (MBC), a small sample was taken from each well using an inoculation loop, which was then spread on MHA plates and incubated overnight at 37 °C. […] Each of these tests was performed twice (n = 2).

[3] = system: E. coli ATCC 25922; type: cell-based
Protocol: as §1

[4] = system: S. aureus ATCC 25923; set-up: method as in ref 15, 25, 26 = [15]; PMID 25815317; doi:10.1155/2015/453826; 15. León M.A. Leal A.L. Almanzar G. Rosas J.E. García J.E. Rivera Z.J. Antibacterial activity of synthetic peptides derived from Lactoferricin against Escherichia coli ATCC 25922 and Enterococcus faec || [25]; PMID 28613262; doi:10.3390/molecules22060987; 25. Huertas N.J. Monroy Z.J.R. Medina R.F. Castañeda J.E.G. Antimicrobial Activity of Truncated and Polyvalent Peptides Derived from the FKCRRWQWRMKKGLA Sequence against Escherichia coli ATCC 25922 an || [26]; PMID 28287494; doi:10.3390/molecules22030452; 26. Huertas Méndez N.J. Vargas Casanova Y. Gómez Chimbi A.K. Hernández E. Leal Castro A.L. Melo Diaz J.M. Rivera Monroy Z.J. García Castañeda J.E. Synthetic Peptides Derived from Bovine Lactoferricin; settings: cited from earlier work
[5] = type: cell-based, human
Protocol: (§2) Cytotoxicity assays were performed as previously described. Briefly, breast cancer cell lines (100 µL; 2.5 × 10^3 cells/well) were seeded in 96-well flat bottom tissue culture treated plates and were incubated at 37 °C in a 10% CO2 humidified atmosphere for 24 h, allowing for cell adhesion. Then the media was removed, then 100 µL of FBS (5%) and 100 µL of peptide were added. The peptide final concentration was ranging from 200 to 6.25 µg/mL and the final FBS concentration was 2.5%. Plates were incubated 2 h at 37 °C in a 10% CO2 humidified atmosphere (physiologic pH). Negative controls included medium and water. All controls were prepared in triplicate. Cell viability was determined using the MTT assay after 2 h. For this, 10 µL of MTT solution (5 mg/mL) was added to each well, and the plates were incubated for 2 h at 37 °C. Formazan crystals were clarified by centrifugation, the supernatant was discarded, and the crystals were dissolved in DMSO (100 µL). Absorbance (570 nm) was registered on a Bio-Rad 680 microplate reader. (n = 3).

[6] = system: S. enteriditis ATCC 13076; set-up: method as in ref 15, 25, 26 = [15]; PMID 25815317; doi:10.1155/2015/453826; 15. León M.A. Leal A.L. Almanzar G. Rosas J.E. García J.E. Rivera Z.J. Antibacterial activity of synthetic peptides derived from Lactoferricin against Escherichia coli ATCC 25922 and Enterococcus faec || [25]; PMID 28613262; doi:10.3390/molecules22060987; 25. Huertas N.J. Monroy Z.J.R. Medina R.F. Castañeda J.E.G. Antimicrobial Activity of Truncated and Polyvalent Peptides Derived from the FKCRRWQWRMKKGLA Sequence against Escherichia coli ATCC 25922 an || [26]; PMID 28287494; doi:10.3390/molecules22030452; 26. Huertas Méndez N.J. Vargas Casanova Y. Gómez Chimbi A.K. Hernández E. Leal Castro A.L. Melo Diaz J.M. Rivera Monroy Z.J. García Castañeda J.E. Synthetic Peptides Derived from Bovine Lactoferricin; settings: cited from earlier work
[7] = type: cell-based, human; remark: listed apart in the source
Protocol: as §2

[8] = system: breast cancer cell line MDA-MB-231; settings: even at the highest tested concentration (40 µM); cited from earlier work
Protocol: For the second part of the experiments, all members of each designed peptide family were tested against MDA-MB-468 and MDA-MB-231 breast cancer cell lines (Figure 3). […] When breast cancer cells lines were incubated with linear peptides or cyclic peptides (200 µg/mL), their viability was approximately 80%.

[9] = system: human gastric cancer cell line AGS; settings: cited from earlier work

Compound | MIC [1] | Antibacterial Effect MBC ([2]; ATCC 11775) | Antibacterial Effect MIC ([2]; ATCC 11775, 24 h) | Antibacterial Effect MIC ([2]; E. coli ATCC 11775, microdilution in MHB, 24 h at 37 °C, absorbance 620 nm, n = 2) | Antibacterial Effect MBC ([2]; E. coli ATCC 11775, plated on MHA overnight at 37 °C, no bacterial growth, n = 2) | Antibacterial Effect MBC ([3]; ATCC 25922) | Antibacterial Effect MIC ([3]; ATCC 25922, 24 h) | Antibacterial Effect MIC ([3]; E. coli ATCC 25922, microdilution in MHB, 24 h at 37 °C, absorbance 620 nm, n = 2) | Antibacterial Effect MBC ([3]; E. coli ATCC 25922, plated on MHA overnight at 37 °C, no bacterial growth, n = 2) | MIC [4] | IC50 at 2 h ([5]; human) | MIC [6] | IC50 [7] | cytotoxic activity (in words) [8] | IC50 [5] | IC50 [9]
N=C(N)NCCC[C@H](NC(=O)[C@H](Cc1c[nH]c2ccccc12)NC(=O)[C@H](CCC(N)=O)NC(=O)[C@H](Cc1c[nH]c2ccccc12)NC(=O)[C@H](CCCNC(=N)N)NC(=O)[C@@H](N)CCCNC(=N)N)C(=O)NCCCC[C@H](NC(=O)[C@H](CCCNC(=N)N)NC(=O)[C@H](Cc1c[nH]c2ccccc12)NC(=O)[C@H](CCC(N)=O)NC(=O)[C@H](Cc1c[nH]c2ccccc12)NC(=O)[C@H](CCCNC(=N)N)NC(=O)[C@@H](N)CCCNC(=N)N)C(=O)NCCCCCC(N)=O [LfcinB (20–25)2] (I: H-RRWQWRK[Ahx]-NH2 / II: H-RRWQWR; amide I:7-II:C) | 2.8 µM (≈ 6.15 µg/mL) | 22 µM | 22 µM | 50 µg/mL | 50 µg/mL | 11 µM | 6 µM | 12.5 µg/mL | 25 µg/mL | 5.6 µM (≈ 12.3 µg/mL) | > 100 µM | 22.4 µM (≈ 49.2 µg/mL) | – | – | – | –
RRWQWR-NH2 [LfcinB (20–25)] | – | 203 µM | 203 µM | – | – | 203 µM | 203 µM | – | – | – | – | – | > 203 µM | weak cytotoxic activity | > 203 µM | > 500 µM
